SMILES strings stand for the structures. Values after ≈ are worked out from the molar mass of the structure shown.

The subject of the first assay is Mycobacterium tuberculosis H37Rv. Description: Antitubercular activity, growth inhibition by Alamar-Blue / resazurin microtiter assay. The note with it: H37RV. The assay is classed as cell-based.
The term MIC denotes the lowest concentration that inhibits growth of the organism. `Cc1c(CN2CC[Si](C)(C)CC2)cc(-c2ccc(Cl)cc2)n1-c1ccc(Cl)cc1` [Compound 9, 1-((1,5-bis(4-chlorophenyl)-2-methyl-1H-pyrrol-3-yl)methyl)-4,4-dimethyl-1,4-azasilinane] registered an MIC of 0.04 µg/mL (≈ 0.0902 µM).
On the same count and under the same terms, next, `CSc1ccc(-c2cc(CN3CC[Si](C)(C)CC3)c(C)n2-c2ccc(F)cc2)cc1` [Compound 10a, 1-((1-(4-fluorophenyl)-2-methyl-5-(4-(methylthio)phenyl)-1H-pyrrol-3-yl)methyl)-4,4-dimethyl-1,4-azasilinane]: 0.08 µg/mL (≈ 0.182 µM); `CSc1ccc(-c2c(CN3CC[Si](C)(C)CC3)cc(C)n2-c2ccc(F)cc2)cc1` [Compound 10b, 1-((1-(4-fluorophenyl)-5-methyl-2-(4-(methylthio)phenyl)-1H-pyrrol-3-yl)methyl)-4,4-dimethyl-1,4-azasilinane]: 1.56 µg/mL (≈ 3.56 µM).
Consider `Cc1c(CN2CC[Si](C)(C)CC2)cc(-c2ccc(C(C)C)cc2)n1-c1ccc(Cl)cc1` [Compound 11a, 1-((1-(4-chlorophenyl)-5-(4-isopropylphenyl)-2-methyl-1H-pyrrol-3-yl)methyl)-4,4-dimethyl-1,4-azasilinane], for which inhibition of growth (MIC) required 0.04 µg/mL (≈ 0.0887 µM).
Still for that read-out and setting: with `CSc1ccc(-c2cc(CN3CC[Si](C)(C)CC3)c(C)n2-c2ccc(C(C)C)cc2)cc1` [Compound 12a, 1-((1-(4-isopropylphenyl)-2-methyl-5-(4-(methylthio)phenyl)-1H-pyrrol-3-yl)methyl)-4,4-dimethyl-1,4-azasilinane] the figure was 0.04 µg/mL (≈ 0.0864 µM); with `CSc1ccc(-c2c(CN3CC[Si](C)(C)CC3)cc(C)n2-c2ccc(C(C)C)cc2)cc1` [Compound 12b, 1-((1-(4-isopropylphenyl)-5-methyl-2-(4-(methylthio)phenyl)-1H-pyrrol-3-yl)methyl)-4,4-dimethyl-1,4-azasilinane], 1.25 µg/mL (≈ 2.7 µM).
The same measure, in the same setting: next, `CCc1ccc(-n2c(-c3ccc(Cl)cc3)cc(CN3CC[Si](C)(C)CC3)c2C)cc1` [Compound 13, 1-((5-(4-chlorophenyl)-1-(4-ethylphenyl)-2-methyl-1H-pyrrol-3-yl)methyl)-4,4-dimethyl-1,4-azasilinane]: 0.08 µg/mL (≈ 0.183 µM).
The same measure, in the same setting: next, `COc1ccc(-c2c(CN3CC[Si](C)(C)CC3)cc(C)n2-c2ccc(F)cc2)cc1` [Compound 14, 1-((1-(4-fluorophenyl)-2-(4-methoxyphenyl)-5-methyl-1H-pyrrol-3-yl)methyl)-4,4-dimethyl-1,4-azasilinane]: 3.12 µg/mL (≈ 7.38 µM); `Cc1c(CN2CC[Si](C)(C)CC2)cc(-c2ccc(Cl)cc2)n1-c1ccccc1` [Compound 15, 1-((5-(4-chlorophenyl)-2-methyl-1-phenyl-1H-pyrrol-3-yl)methyl)-4,4-dimethyl-1,4-azasilinane]: 0.04 µg/mL (≈ 0.0978 µM); `CCc1ccc(-c2cc(CN3CC[Si](C)(C)CC3)c(C)n2-c2ccc(OC)cc2)cc1` [Compound 16, 1-((5-(4-ethylphenyl)-1-(4-methoxyphenyl)-2-methyl-1H-pyrrol-3-yl)methyl)-4,4-dimethyl-1,4-azasilinane]: 0.08 µg/mL (≈ 0.185 µM).
In turn, `Cc1ccc(-c2cc(CN3CC[Si](C)(C)CC3)c(C)n2-c2ccc(F)cc2)cc1` [Compound 17, 1-((1-(4-fluorophenyl)-2-methyl-5-(p-tolyl)-1H-pyrrol-3-yl)methyl)-4,4-dimethyl-1,4-azasilinane] gave an MIC of 0.04 µg/mL (≈ 0.0984 µM).
`CCOc1ccc(-c2c(CN3CC[Si](C)(C)CC3)cc(C)n2-c2ccc(OC)cc2)cc1` [Compound 18, 1-((2-(4-ethoxyphenyl)-1-(4-methoxyphenyl)-5-methyl-1H-pyrrol-3-yl)methyl)-4,4-dimethyl-1,4-azasilinane] showed an MIC of 5 µg/mL (≈ 11.1 µM).
In the case of `Cc1c(CN2CC[Si](C)(C)CC2)cc(-c2ccc(Cl)cc2)n1-c1ccc(C(C)C)cc1` [Compound 19, 1-((5-(4-chlorophenyl)-1-(4-isopropylphenyl)-2-methyl-1H-pyrrol-3-yl)methyl)-4,4-dimethyl-1,4-azasilinane], inhibition of growth (MIC) required 0.04 µg/mL (≈ 0.0887 µM).

The assay is the same for the next values; noted with them: H37Rv, 7H9-OADC media with 0.5% glycerol and 1 mg ml−1 tryptone, 37° C., 96-well plates, visual readout, read-out: MIC.
For `Cc1c(CN2CCN(C)CC2)cc(-c2ccc(Cl)cc2)n1-c1ccc(Cl)cc1` [BM212, 1,5-diaryl-2-methyl-3-(4-methylpiperazin-1-yl)methyl-pyrrole, reference compound], the MIC is 1.56 µg/mL (≈ 3.76 µM).

The test system is the same in another assay.
Test: not given
The note with it: according to literature (Biava. M et. al; J. Med. Chem 2008; 51; 3644); cited from earlier work.
Take `Cc1c(CN2CCN(C)CC2)cc(-c2ccc(Cl)cc2)n1-c1ccc(Cl)cc1` [BM212, 1,5-diaryl-2-methyl-3-(4-methylpiperazin-1-yl)methyl-pyrrole, reference compound]: the MIC was 0.7 µg/mL (≈ 1.69 µM).
